# Entries after “also recorded” stand apart in the source; their conditions may differ.
# What was measured:
# [1] = system: mutants rms1 (line M3T-884 from wild pea WT Térèse); assay: Comparison of GR24, molecule ABC and sorgolactone by local application onto buds at node 4; format: in vivo; conditions: mutant rms1; 100 nM and 500 nM, 10 μl per bud; nine days after the treatment; FIG. 3
# Procedure: A second experiment is carried out on mutants rms1 (line M3T-884 from wild pea WT Térèse) in order to compare on these mutants the effect of synthetic strigolactone GR24, of a synthetic molecule ABC from GR24, without any cycle D characteristic of strigolactone, and Sorgolactone, a natural strigolactone.
# The plants used are obtained in the same manner as for the plants used in the first experiment.
# The solution containing synthetic strigolactone GR24 at 0 nM, 100 nM and 500 nM (4% PEG 1450, 10% ethanol) is applied with the help of a micropipette onto the buds at the node 4 (N4), at the rate of 10 μl per bud.
# (§1) The buds and/or ramifications at the first two plant nodes N1 and N2 are cut at the time of the treatment.
# The size of the buds at the upper nodes (node N4) is measured nine days after the treatment. The results of the bud growth are illustrated in the chart in FIG. 3.
# [2] = system: mutants rms1 (line M3T-884 from wild pea WT Térèse); assay: Local application of strigolactone onto axillary buds at node 4, bud growth; format: in vivo; conditions: mutant rms1; 100 nM, 10 μl per bud; eight days after the treatment; FIG. 2
# Procedure: (§2) A first experiment is carried out simultaneously on mutants rms1 (line M3T-884 from wild pea WT Térèse) and rms4 (line M3T-946 from wild pea WT Térèse).
# (§3) 9 seeds are used for each treatment; they are sowed in pots (3 plants per pot) in soil mixed to clay balls. The seedling is carried out under glass with a light period of 16 h light/8 h night.
# (§4) The treatment is carried out 10 days after the seedling (Stage with 4 leaves).
# (§5) A solution containing synthetic strigolactone GR24 dissolved in acetone at 0 nM and 100 nM (4% PEG 1450, 25% ethanol, 5^0/00 acetone) is applied with the help of a micropipette onto the buds at the node 4 (N4), at the rate of 10 μl per bud.
# (§6) The buds and/or ramifications at the first two plant nodes N1 and N2 are cut for favoring the start of the buds at upper nodes.
# (§7) The untreated plants correspond to the plants the buds and/or ramifications of which at nodes 1 and 2 have been cut but which have not received any treatment. The control “0 nM” corresponds to the plants treated with the same solution as for the treatment “500 nM” but without any strigolactones.
# [3] = system: mutants rms4 (line M3T-946 from wild pea WT Térèse); assay: as above; format: in vivo; conditions: mutant rms4; 100 nM, 10 μl per bud; eight days after the treatment; FIG. 2
# Procedure: as §2, §3, §4, §5, §6, §7
# wild peas WT Térèse = assay: Local application onto buds at node 2 of wild pea; format: in vivo; conditions: 500 nM, 10 μl per bud, eight days after the treatment, FIG. 4
# Procedure: To this end, a third experiment is carried out on wild peas WT Térèse. The plants used are obtained in a identical manner as for the plants used in the first experiment.
# The treatment is carried out 10 days after the seedling (stage with 4 to 5 leaves).
# A solution containing synthetic strigolactone GR24 at 0 nM and 500 nM (4% PEG, 10% ethanol) is applied with the help of a micropipette onto the buds at the node 2 (N2), at the rate of 10 μl per bud.
# The buds and/or ramifications at the first plant node N1 are cut at the time of the treatment.
# The bud size at the node N2 is measured eight days after the treatment, the results being plotted in the chart in FIG. 4.
# [4] = system: mutants rms1 (line WL5237 from wild pea WT Parvus); assay: Local application onto buds at node 3 of plants of different ages; format: in vivo; conditions: 1000 nM applied on two days, 9 to 13 day-old plants, buds 0.2 to 1 mm at first treatment, three and seven days after, FIG. 5A
# Procedure: A first experiment is carried out on mutants rms1 (line WL5237 from wild pea WT Parvus) in order to compare the effect of synthetic strigolactones GR24 on the size of the treated buds at the time of the treatment.
# In this experiment, 20 seeds are used for each treatment, which are sowed in pots (2 plants per pot with a diameter of 15 cm) in a soil mixed to clay balls. The seedling is carried out under glass with a natural light and with an extension of the light period of 18 h light/6 h night by means of incandescent bulbs (60 W).
# On the first day of treatment, a solution containing synthetic strigolactone GR24 at 0 nM and 1000 nM (4% PEG 1450, 10% ethanol) is applied with the help of a micropipette onto the buds at the node 3 (N3), at the rate of 10 μl per bud.
# On the second day of treatment, a solution containing synthetic strigolactone GR24 at 0 nM and 1000 nM (4% PEG 1450, 10% ethanol) is applied with the help of a micropipette onto the same buds, at the rate of 10 μl per bud.
# as §1
# The first treatment is carried out on 9, 10, 11, 12 and 13 day-old plants (the seedling were spread out over five days).
# The bud size at the node N3 is measured the day of the first treatment (J0) and three and seven days afterwards. The obtained results are illustrated in the charts in FIG. 5A.
# [5] = system: mutants rms1 (line M3T-988 from WT Térèse); assay: Injection into the stem above node N3, size of bud at N5 (long-distance, dose-response); format: in vivo, pea; conditions: rms1 M3T-988; injected 1, 10, 100, 500 nM; eight days after the treatment; FIG. 6
# Procedure: To this end, an experiment is carried out on mutants rms1 (line M3T-988 from WT Térèse) obtained in the same manner as for the mutants used in the preceding experiments.
# The plants are treated by injecting the solution into the stem above the node N3. More precisely, a cotton thread is introduced into the plant stem with the help of needle and is dipped into the solution to be tested. The GR24 solution used (0 nM, 1 nM, 10 nM, 100 nM and 500 nM) were prepared by diluting in water GR24 solutions kept in acetone at different concentrations so that they have the same volume of acetone (10 μl of acetone in 20 ml of water).
# as §1
# The “untreated” plants correspond to control plants the ramifications N1 and N2 of which have been cut, but which have not received any injection.
# The size of the buds at the node situated a distance above the injection zone (N5) is measured eight days after the treatment.
# [6] = system: mutants rms1 (line WL5237 from WT Térèse); assay: Decapitation after treatment of buds at node 3; format: in vivo, pea; conditions: 1000 nM, two applications, decapitated nine days after the treatment, measured seven days after decapitation, FIG. 7B
# Procedure: A first experiment is carried out simultaneously on wild peas (line WT Parvus) and mutants rms1 (line WL5237 from […]). In this experiment, 18 seeds are used for each treatment, which are sowed in pots (2 plants per pot with a diameter of 15 cm) in a soil mixed with sand. The seedling is carried out under glass with natural light and with an extension of the light period of 18 h light/6 h night be means of incandescent bulbs (60 W).
# In a first stage, the plants are treated by two successive applications, separated by a 24 hour interval, of a solution (2% PEG 3550, 50% ethanol) containing synthetic strigolactone GR24 at 0 nM or 1000 nM. The solution is applied with the help of a micropipette onto the buds at the node 3 (N3), at the rate of 10 μl per bud.
# as §1
# The size of the treated buds is measured seven days after the treatment. The chart in FIG. 7A illustrates the results obtained with the buds at the N3.
# In a second stage, a first half of the treated mutant plants rms1 are decapitated just above the node 3, nine days after the treatment, the second half is left intact. The buds and/or ramifications at node 3 of the treated plants at 0 nM (which have not been repressed) are cut.
# The bud size is measured seven days after the decapitation. […]
# [7] = system: wild pea (line WT Térèse) and mutant pea (line M3T-988 ccd8/rms1 from WT Térèse); assay: Application through the roots in hydroponic solution, internodal length and ramification length; format: in vivo
# Procedure: To this end, an experiment is carried out in a hydroponic solution in order to bring GR24 into the hydroponic solution through the roots.
# In this experiment, wild pea seeds (line WT Térèse) and mutant pea seeds (line M3T-988 ccd8/rms1 from WT Térèse) are first sowed in sand. Eight days later, the resulting plants are brought into the hydroponic system in which the roots are dipped in the nutritive solution. Four days later, a GR24 solution (diastereo isomer no 1) is added to 1 μM in the 47 liters of nutritive solution (4.7 ml GR24 at 10 mM). In this experiment, the plants reach the stage with 3-4 nodes.
# Then, the cotyledonal ramifications are removed. The ramifications at the nodes N1 and N2 are kept.
# The observation is carried out seven days later after addition of GR24 in the solution.
# FIG. 10 represents the internodal length measured 19 days later after the germination on treated and untreated wild plants on one hand and treated and untreated mutant plants on the other hand.
# FIG. 11 represents the ramification length (ramifications 3 at node N4) measured 19 days later on treated and untreated wild plants on one hand and treated and untreated mutant plants on the other hand. The ramifications at nodes N1 and N2 have already started at the time of the addition of GR24.
SMILES,"bud growth at node N4, comparison of effects [1]",bud growth at N4 [2],bud growth at N4 [3],bud size at the node N2 (wild peas WT Térèse),"bud size at the node N3, sensitivity of buds of different ages [4]",concentration from which injection above N3 represses the growth of the bud at N5 [5],bud size at N3 after decapitation of plants with buds first inhibited [6],"internodal length, from internode N4-N5 ([7]; 1 μM in hydroponic solution through the roots, wild and rms1 mutant, 19 days after germination, FIG. 10)","ramification length / bud start ([7]; 1 μM in hydroponic solution through the roots, wild and rms1 mutant, measured 19 days later, FIG. 11)","internodal length, internodes N1-N2, N2-N3 and N3-N4 ([7]; 1 μM in hydroponic solution, internodes already developed before addition, FIG. 10)"
O=C1OC2c3ccccc3CC2/C1=C\O (stereo not drawn) [ABC],less efficient than GR24 and sorgolactone,,,,,,,,,
CC1=CC(O/C=C2/C(=O)OC3c4ccccc4CC23)OC1=O (stereo not drawn) [GR24],comparable effects,strongly repressed; also recorded: inhibit the growth of said treated buds,not repressed in a significant manner,has also an action on the growth of the buds,all sensitive to the treatment,≥ 10 nM,able to start again when the plant is decapitated,has an effect only from the internode N4-N5,induces a reduction of the ramification length,has no action
"CC1=C[C@H](O/C=C2/C(=O)O[C@@H]3C4=C(CCC[C@@H]4C)C[C@H]23)OC1=O [sorgolactone, Sorgolactone]",comparable effects,,,,,,,,,

# From US20110230352A1, “TREATMENT PROCESS FOR A SUPERIOR PLANT IN ORDER TO CONTROL ITS GROWTH AND ARCHITECTURE” (INSTITUT NATIONAL DE LA RECHERCHE AGRONOMIQUE, priority 2008, published 2011)
